Results taken from US5725842A, “Method of administering amiloride” (priority 1996, dated 1998).
Counter-ions that a name gives are not always drawn.

How the values were obtained:
[1] = test system: human cystic fibrosis airway epithilia; experiment: Inhibition of Na+ transport (short circuit current, ISC) by amiloride hydrochloride dry powder in minature Ussing chamber; type: cell-based
From the text: Freshly excised human cystic fibrosis airway […] used to assay bioactive amiloride in solution. Freshly excised tissues is obtained from the Operating Room at The University of North Carolina Hospitals as previously described. R. Boucher, M. Stutts, M. Knowles, L. Cantley, and J. Gatzy, Na+ transport in cystic fibrosis respiratory epithelia. Abnormal basal rate and response to adenylate cyclase activation. J. Clin. Invest. 78, 1245-1252 (1986). The tissue preparation is mounted in a minature Ussing chamber that has 6 ml of solution bathing each (mucosal; basolateral) surface of the preparation. The solution is a Krebs-Ringer bicarbonate solution which approximates the ionic composition of plasma. This solution is warmed (37°) and circulated with a gas lift (95% oxygen, 5% CO2) system. Mixing time in this chamber has been previously measured by calibration with dyes (blue dextran) and is five seconds or less. The measurement of sodium transport rates is performed using a voltage clamp that is interfaced to the tissue preparation by pairs of potential sensing electrodes and current passing electrodes. The current required to null the transepithelial potential difference to zero is the short circuit current, which in human airway tissue is an accurate index of sodium transport rates. See R. Boucher et al., supra. […] This experiment was conducted as described above. […]

[2] = Timed release (dissolution) of respirable solid amiloride particles in Krebs-Ringer solution approximating plasma, assayed as bioactive amiloride; type: physicochemical; conditions: amiloride hydrochloride particles ~1 μm; aqueous solution approximating ionic strength of plasma
From the text: Freshly excised human cystic fibrosis airway […] used to assay bioactive amiloride in solution. Freshly excised tissues is obtained from the Operating Room at The University of North Carolina Hospitals as previously described. R. Boucher, M. Stutts, M. Knowles, L. Cantley, and J. Gatzy, Na+ transport in cystic fibrosis respiratory epithelia. Abnormal basal rate and response to adenylate cyclase activation. J. Clin. Invest. 78, 1245-1252 (1986). The tissue preparation is mounted in a minature Ussing chamber that has 6 ml of solution bathing each (mucosal; basolateral) surface of the preparation. The solution is a Krebs-Ringer bicarbonate solution which approximates the ionic composition of plasma. This solution is warmed (37°) and circulated with a gas lift (95% oxygen, 5% CO2) system. Mixing time in this chamber has been previously measured by calibration with dyes (blue dextran) and is five seconds or less. The measurement of sodium transport rates is performed using a voltage clamp that is interfaced to the tissue preparation by pairs of potential sensing electrodes and current passing electrodes. The current required to null the transepithelial potential difference to zero is the short circuit current, which in human airway tissue is an accurate index of sodium transport rates. See R. Boucher et al., supra.

[3] = liquid aerosol, cystic fibrosis; cited from earlier work
[4] = in vivo
[5] = Size distribution of amiloride aerosol (Andersen impactor); type: physicochemical; conditions: MDI with spacer, 60 Lpm
Experimental: In each test, the MDI aerosol was dispersed into the spacer via a 50 μl metering valve designed to deliver 1 mg amiloride per puff; however, the actual delivery was closer to 3 mg/puff as determined by spectrophotometric analysis of all amiloride collected as discussed below.
After each experiment, the apparatus was disassembled and each component washed individually with 50 ml of distilled water to remove amiloride and lactose particles.

[6] = test system: airway epithelia; conditions: applied to luminal membrane; cited from earlier work
[7] = in vivo, po; cited from earlier work

N=C(N)NC(=O)c1nc(Cl)c(N)nc1N [amiloride hydrochloride]
inhibition of ISC ([1]; about 1 μm, at about sixty minutes): Complete Inhibition
time to complete inhibition of ISC ([1]; particle size about 1 μm, Krebs-Ringer bicarbonate, 37°): about sixty
timed release effect of respirable solid particles [2]: dissolved slowly over time

N=C(N)NC(=O)c1nc(Cl)c(N)nc1N [amiloride]
clinical benefit [3]: clinical benefit
maximum systemic dose [4]: 20 mg daily
mass median diameter (mmd) [5]: about 6 um
inhibition of Na+ and water absorption [6]: inhibit
effective concentration in the airway lumen [7]: cannot be achieved
